Columns and labels:
Assay in all cases: relative viability (nuclei count vs DMSO), 5 days (fraction); higher = more cells survive
Seliciclib + Navitoclax = compound: CC[C@H](CO)Nc1nc(NCc2ccccc2)c2ncn(C(C)C)c2n1 [Seliciclib] + CC1(C)CCC(c2ccc(Cl)cc2)=C(CN2CCN(c3ccc(C(=O)NS(=O)(=O)c4ccc(N[C@H](CCN5CCOCC5)CSc5ccccc5)c(S(=O)(=O)C(F)(F)F)c4)cc3)CC2)C1 [Navitoclax] (partner 0.5 µM)
How it was run: (§1)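 Medians of duplicate plates are given as relative viability. That measure is the nuclei count in treated wells divided by the count in vehicle wells. Counts were taken on 4× images of lung cancer cell lines in 1536-well plates, 5 days after pin-tool dosing the day after seeding with one drug alone or a fixed anchor-drug dose plus five library-drug doses (not always all listed) in √10 steps.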

Seliciclib + Vorinostat = compound: CC[C@H](CO)Nc1nc(NCc2ccccc2)c2ncn(C(C)C)c2n1 [Seliciclib] + O=C(CCCCCCC(=O)Nc1ccccc1)NO [Vorinostat] (partner 1 µM)
How it was run: as §1

Seliciclib + Pemetrexed = compound: CC[C@H](CO)Nc1nc(NCc2ccccc2)c2ncn(C(C)C)c2n1 [Seliciclib] + Nc1nc2[nH]cc(CCc3ccc(C(=O)N[C@@H](CCC(=O)O)C(=O)O)cc3)c2c(=O)[nH]1 [Pemetrexed] (partner 0.2 µM)
How it was run: as §1

Seliciclib + Linsitinib = compound: CC[C@H](CO)Nc1nc(NCc2ccccc2)c2ncn(C(C)C)c2n1 [Seliciclib] + C[C@]1(O)C[C@@H](c2nc(-c3ccc4ccc(-c5ccccc5)nc4c3)c3c(N)nccn32)C1 [Linsitinib] (partner 1 µM)
How it was run: as §1

Row | Cell Line | relative viability (Seliciclib + Navitoclax; first compound 0.08 µM) | relative viability (Seliciclib + Navitoclax; first compound 0.253 µM) | relative viability (Seliciclib + Navitoclax; first compound 0.8 µM) | relative viability (Seliciclib + Navitoclax; first compound 2.53 µM) | relative viability (Seliciclib + Navitoclax; first compound 8 µM) | relative viability (Seliciclib + Vorinostat; first compound 0.08 µM) | relative viability (Seliciclib + Vorinostat; first compound 0.253 µM) | relative viability (Seliciclib + Vorinostat; first compound 0.8 µM) | relative viability (Seliciclib + Vorinostat; first compound 2.53 µM) | relative viability (Seliciclib + Vorinostat; first compound 8 µM) | relative viability (Seliciclib + Pemetrexed; first compound 0.08 µM) | relative viability (Seliciclib + Pemetrexed; first compound 0.253 µM) | relative viability (Seliciclib + Pemetrexed; first compound 0.8 µM) | relative viability (Seliciclib + Pemetrexed; first compound 2.53 µM) | relative viability (Seliciclib + Pemetrexed; first compound 8 µM) | relative viability (Seliciclib + Linsitinib; first compound 0.08 µM) | relative viability (Seliciclib + Linsitinib; first compound 0.253 µM) | relative viability (Seliciclib + Linsitinib; first compound 0.8 µM) | relative viability (Seliciclib + Linsitinib; first compound 2.53 µM) | relative viability (Seliciclib + Linsitinib; first compound 8 µM)
1 | LXF-289 | 0.937 | 1.03 | 0.795 | 0.934 | 0.914 | 0.735 | 0.824 | 0.671 | 0.582 | 0.457 | 0.883 | 1.04 | 0.81 | 0.932 | 0.842 | 0.945 | 1.03 | 0.908 | 0.947 | 0.914
2 | NCI-H23 | 0.813 | 0.677 | 0.842 | 0.624 | 0.565 | 0.648 | 0.554 | 0.618 | 0.367 | 0.499 | 0.715 | 0.72 | 0.619 | 0.337 | 0.489 | 0.616 | 0.392 | 0.505 | 0.599 | 0.419
3 | NCI-H322M | 1.22 | 1.34 | 1.12 | 1.37 | 1.24 | 0.894 | 1.03 | 0.87 | 0.773 | 0.521 | 0.615 | 0.716 | 0.564 | 0.636 | 0.619 | 1.02 | 0.932 | 1.05 | 0.977 | 0.803
4 | NCI-H441 | 0.603 | 0.365 | 0.526 | 0.566 | 0.59 | 0.844 | 0.418 | 0.898 | 0.771 | 0.639 | 0.232 | 0.246 | 0.228 | 0.249 | 0.276 | 0.699 | 0.545 | 0.45 | 0.572 | 0.442
5 | NCI-H460 | 1.1 | 1.13 | 1.03 | 1.1 | 0.801 | 0.709 | 0.809 | 0.671 | 0.901 | 0.552 | 0.0625 | 0.0553 | 0.0625 | 0.0593 | 0.0753 | 0.797 | 0.795 | 0.75 | 1 | 0.637
6 | NCI-H520 | 0.96 | 0.847 | 0.997 | 1.2 | 1.18 | 0.704 | 0.635 | 0.802 | 0.725 | 0.632 | 0.535 | 0.627 | 0.657 | 0.654 | 0.619 | 0.954 | 0.762 | 0.924 | 0.949 | 0.935
7 | NCI-H596 | 1 | 0.567 | 0.891 | 1.16 | 0.826 | 0.635 | – | 0.56 | 0.506 | 0.47 | 0.484 | – | 0.534 | 0.557 | 0.51 | 1.09 | 0.636 | 0.996 | 1.12 | 1.1
8 | NCI-H647 | 1.02 | 1 | 1.06 | 1.12 | 0.878 | 0.615 | 0.268 | 0.639 | 0.299 | 0.128 | 0.2 | 0.151 | 0.174 | 0.179 | 0.196 | 1.22 | 1.12 | 1.11 | 1.19 | 0.718
9 | NCI-H838 | 1.11 | 1.03 | 1.2 | 1.26 | 0.917 | 0.649 | 0.683 | 0.666 | 0.595 | 0.342 | 0.246 | 0.28 | 0.242 | 0.263 | 0.239 | 0.933 | 0.864 | 0.943 | 1.07 | 0.966
10 | NCI-H1355 | 0.952 | 0.861 | 1.01 | 1.13 | 0.873 | 0.635 | 0.605 | 0.647 | 0.523 | 0.5 | 0.945 | 0.922 | 1.02 | 1.02 | 0.962 | 0.788 | 0.73 | 0.792 | 0.892 | 0.812
11 | NCI-H1395 | 1.12 | 0.936 | 1.31 | 1.08 | 1.06 | 0.83 | 0.597 | 0.702 | – | 0.631 | 0.932 | 0.757 | 0.854 | – | 0.756 | 0.961 | 0.739 | 1 | 1.06 | 1.28
12 | NCI-H1437 | 1.01 | 1.11 | 1.07 | 1.15 | 0.885 | 0.811 | 0.901 | 0.69 | 0.633 | 0.374 | 0.32 | 0.358 | 0.333 | 0.315 | 0.306 | 1.02 | 1.06 | 0.974 | 1.16 | 0.786
13 | NCI-H1651 | 0.947 | 0.965 | 0.863 | 1.14 | 0.887 | 0.515 | 0.551 | 0.542 | 0.477 | 0.457 | 0.518 | 0.591 | 0.61 | 0.388 | 0.561 | 0.878 | 0.879 | 0.91 | 0.924 | 0.839
14 | NCI-H1666 | 0.951 | 1.05 | 0.909 | 1.06 | 0.512 | 1.01 | 1 | 0.978 | 1.01 | 0.749 | 0.918 | 0.959 | 0.824 | 0.821 | 0.815 | 0.769 | 0.862 | 0.662 | 0.875 | 0.514
15 | NCI-H1734 | 0.847 | 0.733 | 0.834 | 0.879 | 0.808 | 0.802 | 0.623 | 0.969 | 0.716 | 0.456 | 0.417 | 0.35 | 0.432 | 0.448 | 0.416 | 0.951 | 0.819 | 0.824 | 1.02 | 0.775
16 | NCI-H1755 | 0.984 | 0.997 | 0.998 | 1.04 | 0.871 | 0.654 | 0.748 | 0.696 | 0.692 | 0.637 | 0.385 | 0.386 | 0.431 | 0.419 | 0.467 | 0.982 | 1.02 | 0.978 | 1.02 | 0.993
